Results published in patent publication US12643889B2, “Synthesis of novel EP4 antagonist and use in cancer and inflammation” (Wuhan Humanwell Innovative Drug Research And Development …, priority 2020, dated 2026).

Tests used:
[1] = molecular target: T1, human EP4 receptor (Homo sapiens, UniProt P35408); test: Assay of calcium current inhibition on EP4 receptor (FLIPR, 293 cells); type: cell-based; design: expressed in transfected cells; host or cells: 293 cells; details: 293 cells overexpressing human EP4; PGE2 at EC80; FLIPR
T1 sequence (P35408 whole entry): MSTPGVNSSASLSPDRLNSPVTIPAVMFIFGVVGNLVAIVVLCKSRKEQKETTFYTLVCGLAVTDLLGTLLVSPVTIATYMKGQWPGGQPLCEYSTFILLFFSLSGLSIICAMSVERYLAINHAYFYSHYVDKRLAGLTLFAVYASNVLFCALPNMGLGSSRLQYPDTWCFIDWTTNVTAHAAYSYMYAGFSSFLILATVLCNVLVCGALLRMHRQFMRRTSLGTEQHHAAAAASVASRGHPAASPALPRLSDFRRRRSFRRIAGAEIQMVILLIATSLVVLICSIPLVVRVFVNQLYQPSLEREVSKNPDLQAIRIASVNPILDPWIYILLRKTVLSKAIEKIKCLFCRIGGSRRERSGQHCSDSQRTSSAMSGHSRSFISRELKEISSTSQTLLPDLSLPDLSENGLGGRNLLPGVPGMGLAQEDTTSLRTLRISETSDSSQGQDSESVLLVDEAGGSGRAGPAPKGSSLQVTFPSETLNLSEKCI
Procedure: The cells were rapidly thawed in a 37° C. water bath, centrifuged, resuspended, and counted. The cell suspensions were seeded at 20 μL/well in two 384-well plates (20,000 cells/well) and placed in an incubator (a 37° C., 5% CO2) overnight. Preparation of a 2× Fluo-4 Direct™ (Invitrogen, Cat #F10471) loading buffer: 77 mg of probenecid was added to 1 mL of a FLIPR buffer, with a concentration of 250 mM. 10 mL of FLIPR buffer and 0.2 mL of probenecid (250 mM) were added to each tube of Fluo-4 Direct™ crystals (F10471).
One of the cell plates was taken out of the incubator and the medium was removed. 20 μL of an assay buffer and 2× Fluo-4 Direct™ non-wash loading buffer were added to the 384-well cell culture plate to a final volume of 40 μL, and then the culture plate was incubated in an incubator (a 37° C., 5% CO2) for 50 minutes, and then at room temperature for 10 minutes, and then the plate was placed in the FLIPR. 10 μL of the buffer was transferred to the cell plate and the fluorescence signal was read. The agonist PGE2 was formulated as a 10 mM stock in a DMSO solvent and 10 concentration points of the 6× working solution were serially diluted using the buffer. 10 μL of the agonist PGE2 was transferred to the cell plate, the fluorescence signal was read to calculate EC80 value.
The agonist PGE2 was prepared at 6× EC80 concentration and the compound to be tested was formulated as a 10 mM stock solution in the DMSO solvent and 10 concentration points of the 6× compound working solution was serially diluted using the buffer.
Another cell plate was taken to remove media and 20 μL of the assay buffer and 2× Fluo-4 Direct™ non-wash loading buffer were added; the cell plate was incubated in a 37° C., 5% CO2 incubator for 50 minutes and room temperature for 10 minutes and then placed in the FLIPR. 10 μL of the compound working solution, DMSO, and the EP4 full antagonist were transferred to the cell plate and the fluorescence signal was read. […] Inhibition (%)=100−(test group−EP4 full antagonist group)/(DMSO group−EP4 full antagonist group)*100
Compound's IC50 value of EP4 calcium current inhibition was calculated based on the inhibition rate at different concentrations of the compound.

[2] = Canine pharmacokinetic assay; type: in vivo, male Beagle dogs
Procedure: (§1) In a mouse pharmacokinetic assay, male ICR mice (20 g to 25 g) were selected and fasted overnight. Three mice were selected and intragastrically administered with 5 mg/kg of the corresponding compound. The blood of the mice was collected before the administration and at 15 min, 30 min, 1 h, 2 h, 4 h, 8 h, 24 h after the administration. Another 3 mice were intravenously administered with 1 mg/kg of the corresponding compound, and the blood thereof was collected before the administration and at 15 min, 30 min, 1 h, 2 h, 4 h, 8 h, 24 h after the administration. The blood samples were centrifuged at 6800 g at 2° C. to 8° C. for 6 minutes, and plasma was collected and stored at −80° C. The plasma was taken at respective time point, mixed with 3-5 times the amount of acetonitrile containing internal standard, vortexed for 1 minute, centrifuged at 4° C. for 10 minutes at 13000 rpm, supernatant was added 3 times the amount of water, and the appropriate mixture was taken for LC-MS/MS analysis. The primary pharmacokinetic parameters were analyzed with a WinNonlin 7.0 software, with non-compartmental model.
In a canine pharmacokinetic assay, male Beagle dogs (8 kg to 10 Kg) were selected and fasted overnight. Three Beagle dogs were taken and intragastrically administered with 3 mg/kg of the corresponding compound. Another 3 Beagle dogs were intravenously administered with 1 mg/kg of the corresponding compound. The following operations were the same as the mouse pharmacokinetic assay.

[3] = molecular target: T1, human EP4 receptor; test: Assay for EP4 antagonistic effect (cAMP, PGE2-stimulated CHO stable cell line)
Procedure: After trypsinization, cells were resuspended in a buffer (1×HBSS, 0.1% BSA, 20 mM HEPES, and 500 μM IBMX) and 8000 cells were seeded per well in 384-well plates in a seeding volume of 15 μL. A working solution the compound with a 8× concentration was prepared with an experimental buffer, and then 2.5 μL of the working solution of the compound with 8× concentration was added to the 384-well plate, respectively, and incubated at 37° C. for 30 min. An agonist PGE2 working solution with 8× concentration of (4 nM) was prepared with the experimental buffer and 2.5 μL per well was added to the 384-well plate (the final PGE2 concentration was 0.5 nM) and incubated at 37° C. for 30 min. After the reaction was completed, the amount of cAMP in the cells was quantified according to the method in the instructions of the cAMP test kit (Perkin Elmer, Cat #TRF0263). The antagonistic effects (IC50 value) were calculated for the test compounds.

[4] = molecular target: T2, recombinant human EP4 receptor membrane protein (Homo sapiens, UniProt P35408); test: Radioligand binding assay for EP4 receptor ([3H]-PGE2); details: [3H]-PGE2 1.5 nM; membrane protein 20 μg/well
T2 construct: expressed in transfected cells; host or cells: membranes of 293 cells overexpressing human EP4 receptor
T2 sequence (P35408 whole entry): as above
Procedure: The compounds to be tested and PGE2 were formulated as 10 mM stocks in a DMSO solvent, and then 8 concentration points of 4× working solution were serially diluted using a buffer (50 mM HBSS, 0.1% BSA, 500 mM NaCl). […] Unifilter-96 GF/C filter plate (Perkin Elmer) was soaked with 0.5% BSA, 50 μL per well, for at least 30 min at room temperature. After binding was complete, the reaction mixture was harvested through a GF/C plate using a Perkin Elmer Filtermate Harvester, followed by washing the filter plate and drying the filter plate for 1 hour at 50° C. After drying, the bottom of the filter plate wells was sealed using a Perkin Elmer Unifilter-96 sealing tape, and 50 μL of MicroScint™-20 cocktail (Perkin Elmer) was added to seal the top of the filter plate. The ^3H counts captured on the filter were read using a Perkin Elmer MicroBeta2 Reader.
The IC50 and Ki values of the compounds determined by the radioligand binding assay for EP4 receptor were calculated based on the inhibition rate of the different concentrations of the compounds.

[5] = Rat pharmacokinetic assay; type: in vivo, male SD rats
Procedure: as §1
In a rat pharmacokinetic assay, male SD rats (180 g to 240 g) were selected and fasted overnight. Three rats were intragastrically administered with 5 mg/kg of the corresponding compound. Another 3 rats were intravenously administered with 1 mg/kg of the corresponding compound. The following operations were the same as the mouse pharmacokinetic assay.

[6] = male, Beagle, dog, plasma, canine, intravenous administration 1 mg/kg
[7] = male, Beagle, dog, plasma, canine, oral gavage administration 3 mg/kg
[8] = male, SD, plasma, rat, intravenous administration 1 mg/kg
[9] = male, SD, plasma, rat, oral gavage administration 5 mg/kg

## C[C@H](NC(=O)c1c(C(F)F)nn(C)c1Oc1cccc(C(C)(F)F)c1)c1ccc(C(=O)O)cc1 [Compound I-5, (S)-4-(1-(5-(3-(1,1-difluoroethyl)phenoxy)-3-(difluoromethyl)-1-methyl-1H-pyrazole-4-carboxamido)ethyl)benzoic Acid]
[1]
  IC50: 12 nM
[2]; canines, oral administration
  exposure after oral administration relative to the control compound: about 2 times
[2]; [6]
  AUC(0-t): 4370 ng·h/mL
  clearance: 3.5 mL/min/kg
  half-life: 9.73 h
[2]; male, Beagle, dog, plasma, canine, intravenous administration 1 mg/kg, read-out: Vz
  Vd: 2.84 L/kg
[2]; [7]
  AUC(0-t): 10300 ng·h/mL
  Cmax: 4820 ng/mL
  Tmax: 0.25 h
  half-life: 19.9 h
[3]
  IC50: 2.2 nM
[4]
  IC50: 5.3 nM
  Ki: 2.9 nM
[5]; [8]
  AUC(0-t): 1670 ng·h/mL
  clearance: 9.5 mL/min/kg
  half-life: 9.3 h
[5]; male, SD, plasma, rat, intravenous administration 1 mg/kg, read-out: Vz
  Vd: 7.66 L/kg
[5]; [9]
  AUC(0-t): 10800 ng·h/mL
  Cmax: 993 ng/mL
  Tmax: 2 h
  half-life: 9.87 h
[5]; rats, oral administration
  exposure after oral administration relative to the control compound: about 2 times
